“Also recorded” adds a separate entry of the source. Read-outs that look alike come from different tables or passages of the source. Where a SMILES comes first, the peptide text is derived from it. [ ]: non-standard residue; d: D form. 12Ado = NCCCCCCCCCCCC(=O)O; Aoc = NCCCCCCCC(=O)O; Ahx = NCCCCCC(=O)O; AEA = NCCOCC(=O)O

We go through eight compounds from patent US20230242616A1, “CHEMOKINE-SELECTIVE CXCR4 ECTODOMAIN-DERIVED (POLY)PEPTIDE” (Ludwig-Maximilians-Universität München, priority 2020, published 2023).

The target of one data set is T1, CXCL12 (Homo sapiens, UniProt P48061).
T1 construct: purchased Peprotech (or a gift of Dr. von Hundelshausen, LMU Munich)
Nature of the data set: Fluorescence spectroscopic titration, binding to CXCL12. The procedure:
(§1) Fluorescence spectroscopy. Fluorescence spectroscopic titrations were performed as described^28, 32. Fluorescence spectra were recorded using a JASCO FP-6500 fluorescence spectrophotometer. […] Apparent KD values (app. KD) were calculated assuming a 1/1 binding model^32.

The nature of data set [1]: Solubility / biophysical properties of next generation mimics.
In a further data set the target is T2, MIF (Homo sapiens, UniProt P14174).
T2 construct: made in house
T2 sequence (P14174 2-115): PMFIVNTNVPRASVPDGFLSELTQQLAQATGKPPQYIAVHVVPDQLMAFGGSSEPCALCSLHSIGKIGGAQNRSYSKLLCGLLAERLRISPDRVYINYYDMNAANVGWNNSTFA
In words: Fluorescence spectroscopic titration, binding to MIF. As for the experimental part: as §1

Data set [2] has as its system primary human monocyte-derived macrophages. Nature of the data set: Dil-LDL uptake / foam cell formation, MIF-mediated. In kind it is cell-based. As for the experimental part: Dil-LDL uptake/foam cell formation. […] After washing with imaging solution (MEM without phenol red containing 30 mM HEPES, 0.5 g/L NaHCO3, pH 7.4, and 0.2% BSA), cells were exposed to 50 μg/mL 1,1′-dioctadecyl-3,3,3′3′-tetra-methylindocarbocyanine-labeled LDL (Dil-LDL) for 30 min at 4° C. followed by incubation at 37° C. for 20 min. Cells were washed with ice-cold imaging solution (pH 3.5), fixed, and counter-stained with Hoechst 33258.

Data set [3] is described as follows: Estimated solubility index by CD spectroscopy. The class given is physicochemical. The procedure:
Circular dichroism (CD) spectroscopy. […] Far-UV CD measurements were carried out between 195 and 250 nm. The response time was set at 1 s, intervals at 0.1 nm, and bandwidth at 1 nm. All spectra were measured at RT and represent an average of three recorded spectra. Scans were recorded for the ectodomain mimic peptides at a concentration of 1-20 μM in 10 mM sodium phosphate buffer, pH 7.4, containing 1% HFIP, following dilution of freshly made peptide stock solution in HFIP (4° C.) into the buffer-containing cuvette. […] The background spectrum of buffer/1% HFIP alone was subtracted from the spectra of the peptides.

For the next data set, the system named is human monocytes. In words: 3D migration of monocytes elicited by MIF (time-lapse microscopy). In kind it is cell-based. The source says:
Isolation of human peripheral blood-derived monocytes. Human peripheral blood-derived monocytes were isolated as described^14. Briefly, blood was collected from healthy donors or buffy coat obtained from the blood bank of Munich University Hospital, mixed 1:1 with PBS, and PBMCs isolated by Ficoll-Paque Plus gradient (GE Healthcare). Monocytes were purified by negative depletion using the Monocyte Isolation Kit II (Miltenyi). Monocyte purity was verified by flow cytometry using an anti-CD14 antibody (Miltenyl) and was 95-98%. […] The isolation of PBMCs from donor blood was approved by the local ethics committee of LMU Munich. 3D migration of human peripheral blood-derived monocytes by time-lapse microscopy. The 3D-migration behavior of human monocytes was assessed by time-lapse microscopy and individual cell tracking using the 3D chemotaxis μ-Slide system from Ibidi GmbH (Munich, Germany), adapting the established Ibidi dendritic cell protocol for human monocytes. […] Cell motility was monitored performing time-lapse imaging every 1 min at 37° C. for 2 h using a Leica inverted DMi8-Life Cell Imaging System equipped with a DMC2900 Digital Microscope Camera with CMOS sensor and live cell-imaging software (Leica Microsystems, Wetzlar, Germany). Images were imported as stacks to ImageJ software and analyzed with the manual tracking and chemotaxis/migration tools (Ibidi GmbH).

Data set [4] relates to human monocyte-derived macrophages. To be noted: read-out: IC50 of MIF-triggered Dil-oxLDL uptake; lower threshold of effect size roughly 50%.
In data set [5] the test system is primary mouse spleen B lymphocytes. Nature of the data set: Transwell chemotaxis of B cells elicited by MIF. To be noted: 16 nM MIF. In kind it is cell-based. The procedure: Chemotaxis analysis of murine B cells. A Transwell-based assay was used as described previously^34. Briefly, splenic B cells were isolated by negative depletion using a Pan B Cell Isolation Kit (Miltenyi Biotec. Bergisch Gladbach, Germany). Purity of the cells was between 95 and 99%. […] Chemotaxis was followed for 4 h at 37° C. in a humidified atmosphere of 5% CO2. Migrated cells were counted by flow cytometry using CountBright™ Absolute Counting Beads (Molecular Probes-Invitrogen).

The mark [6] stands for this setting: read-out: Alexa-488-MIF/ngm app. Kd (±SD), aqueous 1 × b, pH 7.4, 1% HFIP.
Where [7] appears, read: Alexa-488-MIF/ngm app. Kd (±SD), aqueous 1 × b, pH 7.4, 1% HFIP.
Where [8] appears, read: Fluos-ngm/MIF app. Kd (±SD), aqueous 1 × b, pH 7.4, 1% HFIP.

T1 sequence (P48061 22-93): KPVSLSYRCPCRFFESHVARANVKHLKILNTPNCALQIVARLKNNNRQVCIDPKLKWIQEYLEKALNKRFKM

In the case of H-WYFGNFLCKKKKDRFYPNDLW-NH2 [msR4M-LK3], on CXCL12, the “binding to CXCL12 (in words)” value is given as “good binding affinity for CXCL12”. The “solubility properties (in words)” value in data set [1] is “very good solubility properties”.

In the case of `CC(C)C[C@H](NC(=O)[C@H](CC(=O)O)NC(=O)[C@H](CC(N)=O)NC(=O)[C@@H]1CCCN1C(=O)[C@H](Cc1ccc(O)cc1)NC(=O)[C@H](Cc1ccccc1)NC(=O)[C@H](CCCNC(=N)N)NC(=O)[C@H](CC(=O)O)NC(=O)CNC(=O)CNC(=O)CNC(=O)[C@H](CCCCN)NC(=O)[C@H](CS)NC(=O)[C@H](CC(C)C)NC(=O)[C@H](Cc1ccccc1)NC(=O)[C@H](CC(N)=O)NC(=O)CNC(=O)[C@H](Cc1ccccc1)NC(=O)[C@H](Cc1ccc(O)cc1)NC(=O)[C@@H](N)Cc1c[nH]c2ccccc12)C(=O)N[C@@H](Cc1c[nH]c2ccccc12)C(N)=O` [msR4M-LG3], the Kd on MIF (setting [6]) was over 5000 nM.

As to `CC(C)C[C@H](NC(=O)[C@H](CC(=O)O)NC(=O)[C@H](CC(N)=O)NC(=O)[C@@H]1CCCN1C(=O)[C@H](Cc1ccc(O)cc1)NC(=O)[C@H](Cc1ccccc1)NC(=O)[C@H](CCCNC(=N)N)NC(=O)[C@H](CC(=O)O)NC(=O)CCCCCCCCCCCNC(=O)CCCCCNC(=O)[C@H](CCCCN)NC(=O)[C@H](CS)NC(=O)[C@H](CC(C)C)NC(=O)[C@H](Cc1ccccc1)NC(=O)[C@H](CC(N)=O)NC(=O)CNC(=O)[C@H](Cc1ccccc1)NC(=O)[C@H](Cc1ccc(O)cc1)NC(=O)[C@@H](N)Cc1c[nH]c2ccccc12)C(=O)N[C@@H](Cc1c[nH]c2ccccc12)C(N)=O` [msR4M-L3] (H-WYFGNFLCK[Ahx][12Ado]DRFYPNDLW-NH2), the Kd at MIF (setting [6]) is 11.7 nM; on MIF (read-out: Binding affinity (fluorescence spectroscopic titration) Kd, Table 7, reconnected short mimics), 14 nM; at MIF (read-out: Fluos-ngm/MIF app. Kd (±SD), aqueous 1 × b, pH 7.4, 1% HFIP), 44.4 nM. Also, at CXCL12, the “binding to CXCL12 (in words)” value is listed as “essentially no binding affinity for CXCL12”. In data set [2], the “Atherogenic inhibitory activity (Dil-LDL uptake)” value (“Atherogenic inhibitory activity” for short) is 80% of % of full-length msR4M-L1. In data set [1], the “solubility properties (in words)” value is “less favorable solubility properties”.

On to H-WYFGNFLCKRRRDRFYPNDLW-NH2 [msR4M-LR3], for which the “binding to CXCL12 (in words)” value on CXCL12 is recorded as “good binding affinity for CXCL12”. Moreover, the “Estimated solubility index by CD spectroscopy” value (from here on “Estimated solubility index”) in data set [3] is >2× compared to × compared to msR4M-L1. Moreover, the “solubility properties (in words)” value in data set [1] is “very good solubility properties”.

With H-WYFGNFLCKDDDDRFYPNDLW-NH2 [msR4M-LD3], at MIF (setting [6]), the Kd is 247 nM. Moreover, the “binding to CXCL12 (in words)” value at CXCL12 is on record as “essentially no binding propensity for CXCL12”. For the same compound, the “effect on MIF-triggered 3D monocyte migration” value with human monocytes was “inhibit the MIF-mediated monocytes migration”. Also, the IC50 is 18.4 nM with human monocytes (3D migration, one experiment, read-out: IC50 of MIF-mediated monocyte migration) and 1.4 nM in data set [4]. In data set [3], the “Estimated solubility index” value was >2× compared to × compared to msR4M-L1. The “solubility properties (in words)” value in data set [1] is “performing most superior”.

`CC(C)C[C@H](NC(=O)[C@H](CC(=O)O)NC(=O)[C@H](CC(N)=O)NC(=O)[C@@H]1CCCN1C(=O)[C@H](Cc1ccc(O)cc1)NC(=O)[C@H](Cc1ccccc1)NC(=O)[C@H](CCCNC(=N)N)NC(=O)[C@H](CC(=O)O)NC(=O)COCCNC(=O)COCCNC(=O)[C@H](CCCCN)NC(=O)[C@H](CS)NC(=O)[C@H](CC(C)C)NC(=O)[C@H](Cc1ccccc1)NC(=O)[C@H](CC(N)=O)NC(=O)CNC(=O)[C@H](Cc1ccccc1)NC(=O)[C@H](Cc1ccc(O)cc1)NC(=O)[C@@H](N)Cc1c[nH]c2ccccc12)C(=O)N[C@@H](Cc1c[nH]c2ccccc12)C(N)=O` [msR4M-L5] (H-WYFGNFLCK[AEA][AEA]DRFYPNDLW-NH2): the Kd at MIF (setting [7]) was 41.8 nM; at MIF (Binding affinity (fluorescence spectroscopic titration) Kd, Table 8, mimics with enhanced solubility), 30 to 40 nM; on MIF (setting [8]) it was 14.3 nM. For the same compound, the “binding to CXCL12 (in words)” value on CXCL12 is “essentially no binding propensity for CXCL12”. The “Atherogenic inhibitory activity” value in data set [2] is 30% of % of full-length msR4M-L1. For the same compound, the “effect on MIF-triggered 3D monocyte migration” value with human monocytes was “inhibit the MIF-mediated monocytes migration”. In data set [3], the “Estimated solubility index” value was >2× compared to × compared to msR4M-L1. For the same compound, in data set [4], the IC50 worked out at 69.7 nM. Besides, the “solubility properties (in words)” value in data set [1] is “favorable biophysical properties such as solubility”.

`CC(C)C[C@H](NC(=O)[C@H](CC(=O)O)NC(=O)[C@H](CC(N)=O)NC(=O)[C@@H]1CCCN1C(=O)[C@H](Cc1ccc(O)cc1)NC(=O)[C@H](Cc1ccccc1)NC(=O)[C@H](CCCNC(=N)N)NC(=O)[C@H](CC(=O)O)NC(=O)CCCCCCCNC(=O)[C@H](CCCCN)NC(=O)[C@H](CS)NC(=O)[C@H](CC(C)C)NC(=O)[C@H](Cc1ccccc1)NC(=O)[C@H](CC(N)=O)NC(=O)CNC(=O)[C@H](Cc1ccccc1)NC(=O)[C@H](Cc1ccc(O)cc1)NC(=O)[C@@H](N)Cc1c[nH]c2ccccc12)C(=O)N[C@@H](Cc1c[nH]c2ccccc12)C(N)=O` [msR4M-L4] (H-WYFGNFLCK[Aoc]DRFYPNDLW-NH2): the Kd on MIF (setting [7]) turned out to be 43.2 nM; at MIF (setting [8]), 11.9 nM. Besides, the “binding to CXCL12 (in words)” value at CXCL12 is given as “essentially no binding affinity for CXCL12”. Also, in data set [2], the “Atherogenic inhibitory activity” value is reported as 80% of % of full-length msR4M-L1. In addition, in data set [1], the “solubility properties (in words)” value was “less favorable solubility properties”.

For the compound `CC[C@H](C)[C@H](NC(=O)[C@H](Cc1ccc(O)cc1)NC(=O)[C@H](CCCNC(=N)N)NC(=O)[C@H](CC(=O)O)NC(=O)CCCCCCCCCCCNC(=O)COCCOCCNC(=O)[C@H](CCCCN)NC(=O)[C@H](CS)NC(=O)[C@H](CC(C)C)NC(=O)[C@H](Cc1ccccc1)NC(=O)[C@H](CC(N)=O)NC(=O)CNC(=O)[C@H](Cc1ccccc1)NC(=O)[C@H](Cc1ccc(O)cc1)NC(=O)[C@H](Cc1c[nH]c2ccccc12)NC(=O)[C@H](CC(N)=O)NC(=O)[C@H](C)NC(=O)[C@@H](NC(=O)[C@H](C)NC(=O)[C@@H](N)CC(=O)O)C(C)C)C(=O)N[C@@H](CS)C(=O)N[C@@H](CC(=O)O)C(=O)N[C@@H](CCCNC(=N)N)C(=O)N[C@@H](Cc1ccccc1)C(=O)N[C@@H](Cc1ccc(O)cc1)C(=O)N1CCC[C@H]1C(=O)N[C@@H](CC(N)=O)C(=O)N[C@@H](CC(=O)O)C(=O)N[C@@H](CC(C)C)C(=O)N[C@@H](Cc1c[nH]c2ccccc12)C(=O)N[C@H](C(N)=O)C(C)C` [msR4M-L2], the “inhibition of MIF-mediated B-cell chemotaxis” value in data set [5] is recorded as “inhibits MIF-triggered B-lymphocyte chemotaxis; also recorded: fully blocked”.
